In patent US9783536B2, “Nitrogen-containing heterocyclic compound or salt thereof” (FUJIFILM Corporation, priority 2013, dated 2017):
Where a name gives a salt, the structure may show the parent alone. Read-outs that look alike come from different tables or passages of the source.

How the values were obtained:
[1] = molecular target: T1, GST fusion human ERK2 protein (Homo sapiens, UniProt P28482); assay: ERK2 enzyme assay (2); format: biochemical; conditions: read-out: ERK2 enzyme inhibitory activity (2)
T1 construct: purchased Carna Biosciences, Inc; host or cells: E. coli expression system
Procedure: In an ERK2 enzyme assay, GLUTATHIONE S-TRANSFERASE (GST) FUSION HUMAN ERK2 PROTEIN (manufactured by Carna Biosciences, Inc.), which was produced by using an E. coli expression system, was used.
12 μL of a reaction liquid (1.25 nmol/L ERK2, 100 mmol/L Hepes, 10 mmol/L MgCl2, 1.5 mmol/L DTT, 0.003% Brij35, pH 7.5) including ERK2 protein and a test compound having a predetermined concentration was allowed to stand at room temperature for 15 minutes. Then, 3 μL of a mixture liquid of FL-PEPTIDE8 (5-FAM-IPTSPITTTYFFFKKK-COOH) (manufactured by Caliper Life Sciences), which is substrate peptide, and ATP (manufactured by Sigma-Aldrich Co. LLC.) was added thereto such that the final concentrations thereof became 4.25 μmol/L and 1 mmol/L, respectively, and an enzyme reaction was performed by allowing to stand at 25° C. for 120 minutes.
After the reaction, the enzyme reaction was stopped by adding 30 μL of a reaction stopper liquid (100 mmol/L HEPES, 11.2 mmol/L EDTA, 5.6% Brij35, pH 7.5) including a 0.5% COATING REAGENT 8 (trade name, manufactured by Perkin Elmer Inc.) thereto. Then, phosphorylated peptide and non-phosphorylated peptide were separated using LABCHIP EZ READER (trade name, manufactured by Caliper Life Sciences), and the porportion of the phosphorylated peptide was quantified.
(§1) The inhibitory activities of the compounds were evaluated using IC50 (50% inhibitory concentration). The IC50 was calculated using XLFIT (trade name, manufactured by ID Business Solutions).

human PI3Kα protein = molecular target: T2, human PI3Kα protein (Homo sapiens, UniProt P42336); assay: PI3Kα enzyme assay (ADP-Glo); format: biochemical; conditions: read-out: PI3Kα enzyme inhibitory activity
T2 construct: purchased Carna Biosciences, Inc; host or cells: baculovirus expression system
Procedure: In a PI3Kα enzyme assay, a product (manufactured by Carna Biosciences, Inc.) obtained by biotinylating a human PI3Kα protein produced by using a baculovirus expression system was used. In addition, in the detection of enzyme activity, ADP-GLO KINASE ASSAY (trade name, manufactured by PROMEGA Corporation) was used.
10 μL of a reaction liquid (4.5 nmol/L PI3Kα, 40 mmol/L Tris-HCl, 20 mmol/L MgCl2, 0.1% BSA, pH 7.5) including the human PI3Kα protein and a test compound having a predetermined concentration was allowed to stand at room temperature for 15 minutes. Then, 5 μL of a mixture liquid of L-α-phosphatidylinositol 4,5-diphosphate (PIP2) (manufactured by Sigma-Aldrich Co. LLC.) and ATP (manufactured by Sigma-Aldrich Co. LLC.), which are substrates, was added thereto such that final concentrations thereof became 50 μmol/L and 100 μmol/L, respectively, and an enzyme reaction was performed by allowing to stand at 25° C. for 60 minutes.
After the reaction, the enzyme reaction was stopped by adding 15 μL of an ADP-GLO REAGENT (trade name, manufactured by PROMEGA Corporation) thereto and allowing to stand at room temperature for 60 minutes. Then, 30 μL of a KINASE DETECTION REAGENT (trade name, manufactured by PROMEGA Corporation) was added thereto, followed by allowing to stand at room temperature for 40 minutes, and ADP produced by the enzyme reaction was quantified by emission intensity.
ENVISION (trade name, manufactured by Perkin Elmer Inc.) was used for the measurement of the emission intensity.
as §1

[2] = 4.5 nmol/L PI3Kα, PIP2 50 μmol/L, ATP 100 μmol/L

T2 sequence (P42336 whole entry): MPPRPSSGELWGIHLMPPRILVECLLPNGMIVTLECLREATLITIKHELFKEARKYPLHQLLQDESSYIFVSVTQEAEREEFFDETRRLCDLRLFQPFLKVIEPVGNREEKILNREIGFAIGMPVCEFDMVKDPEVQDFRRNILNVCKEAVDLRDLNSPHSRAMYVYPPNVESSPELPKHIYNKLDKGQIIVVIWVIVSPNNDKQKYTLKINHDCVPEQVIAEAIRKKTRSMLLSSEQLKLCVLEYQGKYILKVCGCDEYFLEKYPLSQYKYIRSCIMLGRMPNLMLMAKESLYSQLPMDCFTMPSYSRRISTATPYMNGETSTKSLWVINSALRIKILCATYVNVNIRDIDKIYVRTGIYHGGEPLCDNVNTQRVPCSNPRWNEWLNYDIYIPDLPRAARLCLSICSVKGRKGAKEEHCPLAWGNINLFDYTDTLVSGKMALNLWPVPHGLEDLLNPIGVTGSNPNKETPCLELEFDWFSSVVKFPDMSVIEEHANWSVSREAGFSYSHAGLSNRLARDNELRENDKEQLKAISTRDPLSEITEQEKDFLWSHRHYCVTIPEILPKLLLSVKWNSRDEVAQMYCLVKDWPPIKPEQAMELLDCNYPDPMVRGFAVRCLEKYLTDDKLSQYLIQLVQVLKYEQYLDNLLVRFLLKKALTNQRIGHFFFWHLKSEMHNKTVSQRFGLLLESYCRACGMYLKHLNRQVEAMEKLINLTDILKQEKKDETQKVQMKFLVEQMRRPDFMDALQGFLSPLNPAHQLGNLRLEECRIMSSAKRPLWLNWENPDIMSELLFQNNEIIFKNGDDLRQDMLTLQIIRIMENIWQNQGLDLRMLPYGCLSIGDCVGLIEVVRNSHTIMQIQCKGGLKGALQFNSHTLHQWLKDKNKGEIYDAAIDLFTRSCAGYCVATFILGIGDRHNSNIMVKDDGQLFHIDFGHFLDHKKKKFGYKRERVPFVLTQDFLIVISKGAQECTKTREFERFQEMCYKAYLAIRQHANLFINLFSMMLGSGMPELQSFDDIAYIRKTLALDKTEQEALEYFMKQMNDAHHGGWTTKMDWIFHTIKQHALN
T2 sequence (P27986 whole entry partner): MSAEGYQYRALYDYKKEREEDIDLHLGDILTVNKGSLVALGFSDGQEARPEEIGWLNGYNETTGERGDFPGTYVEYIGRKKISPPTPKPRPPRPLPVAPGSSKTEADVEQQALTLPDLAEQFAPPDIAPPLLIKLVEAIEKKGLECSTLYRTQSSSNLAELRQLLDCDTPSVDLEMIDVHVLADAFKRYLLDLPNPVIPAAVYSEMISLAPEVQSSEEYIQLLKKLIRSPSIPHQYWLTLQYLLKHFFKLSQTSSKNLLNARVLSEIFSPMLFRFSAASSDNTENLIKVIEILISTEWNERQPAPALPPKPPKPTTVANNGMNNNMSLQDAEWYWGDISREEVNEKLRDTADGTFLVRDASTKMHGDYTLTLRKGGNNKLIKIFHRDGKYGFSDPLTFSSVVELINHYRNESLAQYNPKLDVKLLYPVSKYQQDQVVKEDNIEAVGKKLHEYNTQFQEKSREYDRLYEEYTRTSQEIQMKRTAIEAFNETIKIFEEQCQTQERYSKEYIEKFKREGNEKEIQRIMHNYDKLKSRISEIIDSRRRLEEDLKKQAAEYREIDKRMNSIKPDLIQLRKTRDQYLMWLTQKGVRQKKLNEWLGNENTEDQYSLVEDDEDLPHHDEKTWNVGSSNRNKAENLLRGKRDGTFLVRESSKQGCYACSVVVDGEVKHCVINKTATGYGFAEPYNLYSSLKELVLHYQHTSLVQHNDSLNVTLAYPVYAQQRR
T1 sequence (P28482 whole entry, the tested form may be a part): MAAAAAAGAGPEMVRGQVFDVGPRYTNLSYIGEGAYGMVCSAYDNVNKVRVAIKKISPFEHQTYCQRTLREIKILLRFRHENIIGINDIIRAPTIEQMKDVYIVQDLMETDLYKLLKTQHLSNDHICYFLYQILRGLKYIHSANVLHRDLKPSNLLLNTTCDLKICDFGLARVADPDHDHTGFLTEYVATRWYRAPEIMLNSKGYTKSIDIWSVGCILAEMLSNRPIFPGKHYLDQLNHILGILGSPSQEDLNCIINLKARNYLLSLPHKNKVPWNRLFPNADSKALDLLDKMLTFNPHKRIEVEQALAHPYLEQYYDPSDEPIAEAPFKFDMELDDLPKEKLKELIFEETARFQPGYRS

IC50 ([1]; ERK2 enzyme assay (2))	IC50 (human PI3Kα protein)	IC50 [1]	IC50 (human PI3Kα protein; [2])	SMILES
< 1000 nM	< 1000 nM	–	–	CC(C)c1cnnc(Nc2ccc3ncc(-c4cnn(Cc5ccc(N)cc5)c4)cc3n2)c1 [Example 0717, 7-(1-(4-Aminobenzyl)-1H-pyrazol-4-yl)-N-(5-isopropylpyridazin-3-yl)-1,5-naphthyridine-2-amine]
< 1000 nM	< 1000 nM	–	–	CC(C)c1cnnc(Nc2ccc3ncc(-c4cnn(CC(CN5CCOCC5)OCc5ccccc5)c4)cc3n2)c1 (stereo not shown) [Example 0732]
< 1000 nM	< 1000 nM	–	–	CNc1cc(-c2cnc3ccc(Nc4cc(C(C)C)cnn4)nc3c2)ccn1 [Example 0423, N-(5-isopropylpyridazin-3-yl)-7-(2-(methylamino)pyridin-4-yl)-1,5-naphthyridine-2-amine hydrochloride]
< 1000 nM	< 1000 nM	–	–	CC(C)c1cnnc(Nc2ccc3ncc(-c4cn(C)nc4NC4CN(C)C4)cc3n2)c1 [Example 0827, N-(5-isopropylpyridazin-3-yl)-7-(1-methyl-3-((1-methylazetidin-3-yl)amino)-1H-pyrazol-4-yl)-1,5-naphthyridine-2-amine]
1000 to 10000 nM	1000 to 10000 nM	–	–	CC(C)c1cnnc(Nc2ccc3ncc(N)cc3n2)c1 [Example 0623, N^2-(5-isopropylpyridazin-3-yl)-1,5-naphthyridine-2,7-diamine]
< 1000 nM	< 1000 nM	–	–	CC(C)c1cnnc(Nc2ccc3ncc(-c4cnn(CCCN5CCN(C)CC5=O)c4)cc3n2)c1 [Example 0425]
10000 to 50000 nM	< 1000 nM	–	–	CC(C)c1ccnc(Nc2ccc3ncc(-c4cnn(C)c4)cc3n2)c1 [Example 0551, N-(4-isopropylpyridin-2-yl)-7-(1-methyl-1H-pyrazol-4-yl)-1,5-naphthyridine-2-amine]
< 1000 nM	< 1000 nM	–	–	CC(C)c1cnnc(Nc2ccc3ncc(-c4cc(N)ncn4)cc3n2)c1 [Example 0765]
< 1000 nM	< 1000 nM	–	–	CC(C)c1cnnc(Nc2ccc3ncc(-c4cn(C)nc4C(F)(F)F)cc3n2)c1 [Example 0634]
< 1000 nM	< 1000 nM	–	–	CC(C)c1cnnc(Nc2ccc3ncc(-c4cnn(CCCN5C[C@@H](C)N(C(=O)N(C)C)[C@@H](C)C5)c4)cc3n2)c1 [Example 0436]
< 1000 nM	1000 to 10000 nM	–	–	CNC(=O)c1cnc2ccc(Nc3cc(C(C)C)cnn3)nc2c1 [Example 0642]
< 1000 nM	< 1000 nM	–	–	CC(C)c1cnnc(Nc2ccc3ncc(-c4cnn(CCCN5CCCCC5=O)c4)cc3n2)c1 [Example 0415, 1-(3-(4-(6-((5-Isopropylpyridazin-3-yl)amino)-1,5-naphthyridin-3-yl)-1H-pyrazol-1-yl)propyl)piperidin-2-one]
< 1000 nM	1000 to 10000 nM	–	–	CC(C)c1cnnc(Nc2ccc3ncc(N4CCC4)cc3n2)c1 [Example 0847, 7-(Azetidin-1-yl)-N-(5-isopropylpyridazin-3-yl)-1,5-naphthyridine-2-amine]
< 1000 nM	< 1000 nM	–	–	COc1ncccc1Cn1cc(-c2cnc3ccc(Nc4cc(C(C)C)cnn4)nc3c2)cn1 [Example 0454]
–	< 1000 nM	1000 to 10000 nM	–	CC(C)c1cnnc(Nc2ccc3ncc(-c4cn(C)nc4N4CCC(=O)N(C)CC4)cc3n2)c1 [Example 0935, 1-(4-(6-((5-isopropylpyridazin-3-yl)amino)-1,5-naphthyridin-3-yl)-1-methyl-1H-pyrazol-3-yl)-4-methyl-1,4-diazepan-5-one]
–	< 1000 nM	< 1000 nM	–	COCCOC1CN(c2nn(C)cc2-c2cnc3ccc(Nc4cc(C(C)C)cnn4)nc3c2)C1 [Example 0933]
< 1000 nM	< 1000 nM	–	–	CCC(CC)c1cnnc(Nc2ccc3ncc(-c4cn(C)nc4C)cc3n2)c1 [Example 0769]
< 1000 nM	< 1000 nM	–	–	CC(C)c1cnnc(Nc2ccc3ncc(-c4cnn(Cc5ccccc5N)c4)cc3n2)c1 [Example 0705, 7-(1-(2-aminobenzyl)-1H-pyrazol-4-yl)-N-(5-isopropylpyridazin-3-yl)-1,5-naphthyridine-2-amine]
< 1000 nM	–	–	–	Cn1cc(-c2cnc3ccc(Nc4cc(-c5ccncc5)cnn4)nc3c2)cn1 [Example 0763]

IC50 ([1]; ERK2 enzyme assay (2))	IC50 (human PI3Kα protein)	IC50 [1]	IC50 (human PI3Kα protein; [2])	SMILES
–	–	10000 to 50000 nM	–	CC(C)c1cnnc(Nc2ccc3ncc(-c4cnn(C)c4)c(O)c3n2)c1 [Example 0915, 6-((5-Isopropylpyridazin-3-yl)amino)-3-(1-methyl-1H-pyrazol-4-yl)-1,5-naphthyridine-4-ol]
–	10000 to 50000 nM	–	–	Cn1cc(-c2cnc3ccc(Nc4cc(C(C)(C)C)on4)nc3c2)cn1 [Example 0776, 5-(tert-Butyl)-N-(7-(1-methyl-1H-pyrazol-4-yl)-1,5-naphthyridin-2-yl)isoxazole-3-amine]
–	–	–	< 1000 nM	Cc1nnc(Sc2ccc3ncc(-c4cnn(C)c4)cc3n2)s1 [Example 0047, 2-methyl-5-((7-(1-methyl-1H-pyrazol-4-yl)-1,5-naphthyridin-2-yl)thio)-1,3,4-thiadiazole]
–	10000 to 50000 nM	–	–	Cn1cc(-c2cnc3ccc(Nc4nccn4C)nc3c2)cn1 [Example 0516, N-(1-methyl-1H-imidazol-2-yl)-7-(1-methyl-1H-pyrazol-4-yl)-1,5-naphthyridine-2-amine]
1000 to 10000 nM	–	–	–	CC(C)c1cnnc(Nc2ccc3ncc(C(=O)NCc4ccccc4)cc3n2)c1 [Example 0647, N-benzyl-6-((5-isopropylpyridazin-3-yl)amino)-1,5-naphthyridine-3-carboxamide]
–	< 1000 nM	–	–	Cn1cc(-c2cnc3ccc(Nc4ccncn4)nc3c2)cn1 [Example 0775, 7-(1-Methyl-1H-pyrazol-4-yl)-N-(pyrimidin-4-yl)-1,5-naphthyridine-2-amine]
–	< 1000 nM	–	–	CC(C)c1cnnc(Nc2ccc3ncc(-c4cn(C)nc4-c4ccnc(N(C)C)c4)cc3n2)c1 [Example 0753, 7-(3-(2-(Dimethylamino)pyridin-4-yl)-1-methyl-1H-pyrazol-4-yl)-N-(5-isopropylpyridazin-3-yl)-1,5-naphthyridine-2-amine]
10000 to 50000 nM	–	–	–	CC(C)c1cnnc(Nc2ccc3ncc(C(=O)N(C)C)cc3n2)c1 [Example 0643]
< 1000 nM	–	–	–	Cc1nccn1-c1cnc2ccc(Nc3cc(C(C)C)cnn3)nc2c1 [Example 0513]
–	1000 to 10000 nM	–	–	Cc1ccc(S(=O)(=O)NC2CN(c3cnc4ccc(Nc5cc(C(C)C)cnn5)nc4c3)C2)cc1 [Example 0866]
–	1000 to 10000 nM	–	–	Cn1cc(-c2cnc3ccc(Nc4cccc(N)c4)nc3c2)cn1 [Example 0677, N^1-(7-(1-methyl-1H-pyrazol-4-yl)-1,5-naphthyridin-2-yl)benzene-1,3-diamine]
–	–	–	1000 to 10000 nM	COc1cncc(Nc2cnc3ccc(Nc4cncc(OC)c4)nc3c2)c1 [Example 0155, N^2,N^7-bis(5-methoxypyridin-3-yl)-1,5-naphthyridine-2,7-diamine]
–	10000 to 50000 nM	–	–	Cn1cc(-c2cnc3ccc(Nc4ccccc4N)nc3c2)cn1 [Example 0675, N^1-(7-(1-methyl-1H-pyrazol-4-yl)-1,5-naphthyridin-2-yl)benzene-1,2-diamine]
< 1000 nM	–	–	–	Cn1cc(-c2cnc3ccc(Nc4cc(-c5ccccc5)cnn4)nc3c2)cn1 [Example 0570]
–	–	–	< 1000 nM	CC(C)c1nnc(Nc2ccc3nccc(Nc4ccccn4)c3n2)s1 [Example 0005]
–	–	–	1000 to 10000 nM	CCOC(=O)c1csc(Nc2ccc3ncc(-c4cnn(C)c4)cc3n2)n1 [Example 0034, ethyl 2-((7-(1-methyl-1H-pyrazol-4-yl)-1,5-naphthyridin-2-yl)amino)thiazole-4-carboxylate]
–	< 1000 nM	–	–	Cc1ccnc(Nc2ccc3ncc(-c4cnn(C)c4)cc3n2)c1 [Example 0546]
1000 to 10000 nM	–	–	–	CC(C)c1cnnc(Nc2ccc3ncc(C(=O)Nc4ccccc4)cc3n2)c1 [Example 0668]
